Test results from article PMC5823870 (Scientific Reports, 2018).

Tests used:
[1] = target: Blh DUF442 domain (ST domain) (Xylella fastidiosa, UniProt Q9PFB0); details: 12 mM potassium phosphate pH 7.4, 25 °C; 12 mM thiosulfate; cyanide as sulfur acceptor
[2] = test system: O=S(O)(O)=S; experiment: purified protein; details: 12 mM potassium phosphate pH 7.4, 25 °C, cyanide 12 mM as sulfur acceptor (methods print potassium cyanate), thiosulfate 0 to 100 mM

Sequence of Blh DUF442 domain (ST domain) (Q9PFB0 1-141 limits assumed): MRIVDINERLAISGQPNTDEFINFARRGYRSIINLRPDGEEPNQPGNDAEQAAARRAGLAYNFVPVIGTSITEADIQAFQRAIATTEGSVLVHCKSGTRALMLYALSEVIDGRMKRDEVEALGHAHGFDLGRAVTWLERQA

| Compound | rhodanese assay, iron-thiocyanate absorbance at 460 nm [1] | Km [2] |
| --- | --- | --- |
| O=S(=O)(O)S [thiosulfate] | catalyze the transfer of the sulfane sulfur of thiosulfate to cyanide | – |
| full-length Blh (Xylella fastidiosa 9a5c) | – | 6.2 mM |
